Consider one molecule from US20220264883A1, “IMIDAZOTHIAZOLE COMPOUNDS AND METHODS FOR TREATING PLANT NEMATODE INFECTIONS” (The Governing Council of the University of Toronto, priority 2019, published 2022).

One series deals with HEK293 cells. Kind of series: HEK cell culture and dose-response experiments. The following applies: non-target system; 48 hours, CellTiter-Blue. It counts as cell-based, Human. Here is the method: HEK293 cells were seeded into 96-well plates, at 5000 cells per well, in 100 μL total volumes of DMEM/10% FBS/1% PS media and grown overnight at 37° C. in the presence of 5% CO2. Compounds (0.5 μL volumes from appropriate source plates) were then added to cells, and growth was continued for an additional 48 hours. Following growth, 10 μL of CellTiter-Blue Viability reagent (Promega) was added to each well, and plates were incubated for an additional 4 hours at 37° C. in the presence of 5% CO2. Fluorescence measurements (560 nm excitation/590 nm emission) were then performed using a CLARIOstar Plate Reader (BMG Labtech) to quantify reagent reduction and estimate cell viability.

In another series the test system is S. cerevisiae. Kind of series: Saccharomyces cerevisiae (budding yeast) dose-response experiments. Conditions: non-target system; growth over 18 hours. Type of series: cell-based. As to the method: A saturated culture of the yeast strain RY0568 was diluted to an OD600 of 0.015 with fresh YPD media (see ref. 62). 100 μL of this dilute yeast suspension was added to each well of a 96-well plate. The yeast were grown for 4 hours at 30° C. with shaking at 140 rpm. Using a multichannel pipette, 1 μL of chemical solution was added to each well to achieve the desired final concentrations. The final DMSO concentration was 1% (v/v). The microwell plate was then loaded into a TECAN plate reader set at 30° C. The OD600 of each well was measured over an 18-hour period, and the plate was shaken intermittently throughout the run. The areas under the resultant growth curves were calculated using R scripts adapted from those found in the MESS package. The area under the curve at each concentration of a dose-response assay was divided by the area under the curve for the corresponding DMSO control, resulting in a “relative fitness” value for each concentration tested. Three biological replicates were performed for each dose-response experiment, and the relative fitness values were averaged across the three replicates.

The next series relates to C57BL/6 mice. Kind of series: Mouse studies (oral dosing, pathologies). The following applies: oral dose 50 mg/kg over several days. It counts as in vivo. Here is the method: Female C57BL/6 mice (bred in house, breeding pairs originally purchased from Charles River, Canada) 6-8 weeks of age were used for all experiments. Animal experiments were approved by the University of Calgary's Animal Care Committee. Infected mice were orally gavaged with a 200 third stage Heligmosomoides polygyrus larvae (maintained in house. Original stock was a gift from Dr. Allen Shostak, University of Alberta, Canada) and euthanized on day 22 post infection. […] Mice were treated orally with 5 daily doses of exemplary compound Ia (50 mg/kg resuspended in DMSO). Control mice were given DMSO only as a control.

For another series, the system named is M. incognita. Kind of series: Meloidogyne incognita infectivity assays (tomato roots in soil). Type of series: in vivo. The following applies: 45 μM in soil, 8 weeks, eggs per mg root relative to DMSO control. Here is the method:
(§1) An M. incognita population originally collected from grape (Vitis vinifera) in Parlier, Calif., was used for all experiments, and they were maintained on tomato plants (Solanum lycopersicum ‘Rutgers’) as previously described^73. Infective J2 juveniles were collected as described in^73. For the infectivity assays, 90 grams of soil (1:1 sand:loam mix) was added to each cell of several 6-cell plastic garden packs. The soil was drenched with 18 mL of deionized water containing dissolved chemical or DMSO alone. 2,500 infective J2 juveniles were then added to the soil in 2 mL of deionized water, for a total water volume of 20 mL. The final concentration of the chemicals in water was 45 μM. The DMSO concentration varied from 0.1% to 0.8% (v/v) depending on the stock concentration of the chemical. The highest DMSO concentration was used as the DMSO control. The J2s were incubated in the soil and chemical for 24 hours, after which two- to three-week old tomato seedlings were transplanted into the soil (one plant per cell). Two replicates were performed for each chemical treatment, and four replicates were done for the DMSO controls. The whole experiment was replicated twice, in two different batches on two different days, for a total of four replicates for each chemical treatment, and eight replicates for the DMSO controls. Inoculated plants were grown for 8 weeks in a greenhouse, as described^73, under long-day conditions (16-h photoperiod) with 26/18° C. day/night temperatures. After 8 weeks, the plants were destructively harvested. The tops were removed and discarded, and roots were gently washed with water to remove adhering soil. Eggs were extracted by placing rinsed roots in 0.6% sodium hypochlorite and agitating at 300 rpm for 3 min. Roots were then rinsed over nested 250- and 25.4-μm sieves, with eggs collected from the latter and suspended in water. Roots were dried in a 65° C. oven for at least 24 hours, after which dry roots were weighed. The number of eggs from each plant root was counted on a dissection microscope using a haemocytometer, and the number of eggs per milligram of root was calculated by dividing the total egg number by the mass of the dried root material. An average was taken across the replicates performed on the same day, and then normalized to the DMSO control average. To calculate percent effectiveness at inhibiting reproduction, the normalized values were subtracted from 1, and then multiplied by 100. An average percent effectiveness value was then calculated across the two different batches carried out on different days.

The subject of another series is M. chitwoodi. Nature of the series: Meloidogyne chitwoodi infectivity assays (tomato roots in soil). It counts as in vivo. The following applies: 45 μM in soil, 8 weeks, egg counts relative to DMSO control. As to the method: An M. incognita population originally collected from grape (Vitis vinifera) in Parlier, Calif., was used for all experiments, and they were maintained on tomato plants (Solanum lycopersicum ‘Rutgers’) as previously described^73. Infective J2 juveniles were collected as described in^73. For the infectivity assays, 90 grams of soil (1:1 sand:loam mix) was added to each cell of several 6-cell plastic garden packs. The soil was drenched with 18 mL of deionized water containing dissolved chemical or DMSO alone. 2,500 infective J2 juveniles were then added to the soil in 2 mL of deionized water, for a total water volume of 20 mL. The final concentration of the chemicals in water was 45 μM. The DMSO concentration varied from 0.1% to 0.8% (v/v) depending on the stock concentration of the chemical. The highest DMSO concentration was used as the DMSO control. The J2s were incubated in the soil and chemical for 24 hours, after which two- to three-week old tomato seedlings were transplanted into the soil (one plant per cell). […] The number of eggs from each plant root was counted on a dissection microscope using a haemocytometer, and the number of eggs per milligram of root was calculated by dividing the total egg number by the mass of the dried root material. […] An average percent effectiveness value was then calculated across the two different batches carried out on different days. […]

In a further series the test system is tomato plants. Nature of the series: Root mass of tomato plants in the infectivity assays. Conditions: 45 μM. Type of series: in vivo, Solanum lycopersicum. As to the method: as §1
Another series has as its system D. rerio. Kind of series: Danio rerio (zebrafish) embryo dose-response experiments. Type of series: in vivo. Conditions: non-target system; embryos, 24 hours exposure. As to the method:
Zebrafish chemical assays were performed similarly to previously described methods^63. In brief, fish were maintained at 28.5° C. on a 14/10 hour light/dark cycle and staged according to hours post fertilization (hpf). For each biological replicate, eggs from LT fish (AB/Tubingen strain) were collected at 4 hpf. At 24 hpf, embryos were arrayed in 24 well plates, 10 per well. In 2 ml tubes, 4 μl of chemical dissolved in DMSO at the appropriate concentration was added to 800 μl of water and then vortexed for 30 s intensively. Water was removed from the embryos in the wells and 800 μl of chemical-treated water was transferred to each of the wells. The DMSO control wells contained DMSO alone. The final DMSO concentration in every well was 0.5% (v/v). […] The embryos were incubated in the chemicals for 24 hours and scored for death and toxicity at 48 hpf. Toxicity was defined as the embryos showing developmental defects such as a curved body, reduced body size, skin whiteness, and heart edema. “Relative viability” was calculated by dividing the number of viable and properly developed embryos in the treatment wells by the average number of viable and properly developed embryos across six DMSO control wells. Three biological replicates were performed for each dose-response experiment, and the relative viability values were averaged across the three replicates.

With `Clc1ccc(-c2cn3ccsc3n2)cc1` [Ia], in the series on HEK293 cells, the “HEK Cells LC50” value is “inactive”. In addition, in the series with S. cerevisiae, the “S. cerevisiae LC50” value is “inactive”. For the same molecule, in the series with C57BL/6 mice, the “obvious pathologies in comparison with the solvent control” value is given as “did not exhibit any obvious pathologies”. Also, in the series on M. incognita, the “% effectiveness at inhibiting reproduction of M. incognita” value was 27.1%. Moreover, the “% effectiveness at inhibiting reproduction of M. chitwoodi” value in the series on M. chitwoodi is listed as 42.6%. Also, the “Normalized root mass (relative to DMSO control)” value in the series with tomato plants is 1.3. For the same molecule, the “D. rerio LC50” value in the series on D. rerio is “inactive”.
